Laboratory results as given in patent publication US20230111853A1, “COMPOUNDS MODULATING PROTEIN RECRUITMENT AND/OR DEGRADATION” (Orionis Biosciences, Inc., priority 2019, published 2023).

How the values were obtained:
[1] = molecular target: T1, SALL4 recruitment to CRBN (Homo sapiens, UniProt Q96SW2); assay: Recruitment Assay (MAPPIT-like): SALL4 recruitment to CRBN; assay type: cell-based; settings: HEK293T cells; pSEL-SALL4+pMG1-CRBN; luciferase 24 hours after treatment; read-out: EC50_SALL4
T1 construct: Full size proteins were fused for each of the target proteins tested, except in the case of IKZF1 where isoform 7 was used; expressed in transfected cells; host or cells: HEK293T
Description: In this experimental set-up, cells were transfected with a construct encoding a CRBN-fusion protein and another one encoding a substrate-fusion protein. Test compound activity was assessed with increasing concentrations of test compounds (dose-response studies) to monitor the ability to promote CRBN-ligand-induced protein interaction.
Full size proteins were fused for each of the target proteins tested, except in the case of IKZF1 where isoform 7 was used. For the study, the following were used: IKZF1 recruitment: pSEL-CRBN+pMG1-IKZF1(isoform 7); ASS1 recruitment: pSEL-CRBN+pMG1-ASS1. SALL4 recruitment: pSEL-SALL4+pMG1-CRBN. […] Luciferase activity was measured 24 hours after test compound treatment using the Luciferase Assay System kit (PROMEGA, Madison, Wis.) with an Ensight plate reader (PERKIN ELMER LIFE SCIENCES, Waltham, Mass.). Data points depicted fold induction of the average luciferase activity of triplicate samples from EPO+test compound treated cells versus EPO only treated cells. Error bars represent standard deviations. Curves were fit using 4-parameter nonlinear regression in […] PRISM software.

[2] = tested on: IKZF1, ASS1 and SALL4 recruitment to CRBN; assay: Recruitment assessment: recruitment of any tested substrate from among IKZF1, ASS1 and SALL4; assay type: cell-based; settings: any tested substrate at any tested compound concentration

T1 sequence (Q96SW2 whole entry, the tested form may be a part, canonical isoform): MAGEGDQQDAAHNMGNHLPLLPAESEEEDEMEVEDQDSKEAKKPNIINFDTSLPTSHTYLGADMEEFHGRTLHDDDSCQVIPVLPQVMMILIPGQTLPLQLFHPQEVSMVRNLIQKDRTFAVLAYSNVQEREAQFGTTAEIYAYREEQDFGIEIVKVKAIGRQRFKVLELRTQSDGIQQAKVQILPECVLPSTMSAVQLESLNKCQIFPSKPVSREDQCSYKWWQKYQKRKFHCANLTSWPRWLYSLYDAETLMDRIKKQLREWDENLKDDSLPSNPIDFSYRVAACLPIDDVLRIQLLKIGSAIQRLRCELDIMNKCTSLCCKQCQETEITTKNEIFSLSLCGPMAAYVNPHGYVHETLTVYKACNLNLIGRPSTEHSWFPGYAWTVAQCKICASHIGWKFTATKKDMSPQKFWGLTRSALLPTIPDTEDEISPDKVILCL
T1 sequence (Q9UJQ4 whole entry partner, the tested form may be a part, canonical isoform): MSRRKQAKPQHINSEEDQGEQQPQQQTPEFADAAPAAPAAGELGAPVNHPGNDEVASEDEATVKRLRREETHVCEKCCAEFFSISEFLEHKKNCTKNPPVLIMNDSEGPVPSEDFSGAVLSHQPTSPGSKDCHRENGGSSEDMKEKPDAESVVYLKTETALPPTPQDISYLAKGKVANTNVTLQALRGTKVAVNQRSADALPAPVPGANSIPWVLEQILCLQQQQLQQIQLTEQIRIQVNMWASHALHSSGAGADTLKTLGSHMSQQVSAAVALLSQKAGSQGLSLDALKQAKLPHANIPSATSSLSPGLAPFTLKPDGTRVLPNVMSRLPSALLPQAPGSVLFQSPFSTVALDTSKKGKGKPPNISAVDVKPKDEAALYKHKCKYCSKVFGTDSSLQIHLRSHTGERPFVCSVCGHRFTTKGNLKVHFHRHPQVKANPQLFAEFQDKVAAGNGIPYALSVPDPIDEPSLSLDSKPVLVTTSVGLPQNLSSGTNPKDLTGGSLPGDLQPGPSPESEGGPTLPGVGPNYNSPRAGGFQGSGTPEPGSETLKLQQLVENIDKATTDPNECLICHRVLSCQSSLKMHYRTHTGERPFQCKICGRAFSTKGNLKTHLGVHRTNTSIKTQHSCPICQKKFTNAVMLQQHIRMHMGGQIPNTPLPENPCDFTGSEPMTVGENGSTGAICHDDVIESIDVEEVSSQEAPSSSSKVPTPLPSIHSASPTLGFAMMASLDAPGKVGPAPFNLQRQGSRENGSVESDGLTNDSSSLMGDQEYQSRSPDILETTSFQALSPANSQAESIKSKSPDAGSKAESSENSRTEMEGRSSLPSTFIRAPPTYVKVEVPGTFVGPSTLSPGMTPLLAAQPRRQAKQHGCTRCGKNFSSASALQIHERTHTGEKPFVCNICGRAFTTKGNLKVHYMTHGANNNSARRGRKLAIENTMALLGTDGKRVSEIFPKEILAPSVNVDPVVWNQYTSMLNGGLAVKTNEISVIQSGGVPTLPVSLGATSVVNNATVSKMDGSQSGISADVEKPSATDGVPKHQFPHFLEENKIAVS
T1 sequence (Q16531 whole entry partner, the tested form may be a part, canonical isoform): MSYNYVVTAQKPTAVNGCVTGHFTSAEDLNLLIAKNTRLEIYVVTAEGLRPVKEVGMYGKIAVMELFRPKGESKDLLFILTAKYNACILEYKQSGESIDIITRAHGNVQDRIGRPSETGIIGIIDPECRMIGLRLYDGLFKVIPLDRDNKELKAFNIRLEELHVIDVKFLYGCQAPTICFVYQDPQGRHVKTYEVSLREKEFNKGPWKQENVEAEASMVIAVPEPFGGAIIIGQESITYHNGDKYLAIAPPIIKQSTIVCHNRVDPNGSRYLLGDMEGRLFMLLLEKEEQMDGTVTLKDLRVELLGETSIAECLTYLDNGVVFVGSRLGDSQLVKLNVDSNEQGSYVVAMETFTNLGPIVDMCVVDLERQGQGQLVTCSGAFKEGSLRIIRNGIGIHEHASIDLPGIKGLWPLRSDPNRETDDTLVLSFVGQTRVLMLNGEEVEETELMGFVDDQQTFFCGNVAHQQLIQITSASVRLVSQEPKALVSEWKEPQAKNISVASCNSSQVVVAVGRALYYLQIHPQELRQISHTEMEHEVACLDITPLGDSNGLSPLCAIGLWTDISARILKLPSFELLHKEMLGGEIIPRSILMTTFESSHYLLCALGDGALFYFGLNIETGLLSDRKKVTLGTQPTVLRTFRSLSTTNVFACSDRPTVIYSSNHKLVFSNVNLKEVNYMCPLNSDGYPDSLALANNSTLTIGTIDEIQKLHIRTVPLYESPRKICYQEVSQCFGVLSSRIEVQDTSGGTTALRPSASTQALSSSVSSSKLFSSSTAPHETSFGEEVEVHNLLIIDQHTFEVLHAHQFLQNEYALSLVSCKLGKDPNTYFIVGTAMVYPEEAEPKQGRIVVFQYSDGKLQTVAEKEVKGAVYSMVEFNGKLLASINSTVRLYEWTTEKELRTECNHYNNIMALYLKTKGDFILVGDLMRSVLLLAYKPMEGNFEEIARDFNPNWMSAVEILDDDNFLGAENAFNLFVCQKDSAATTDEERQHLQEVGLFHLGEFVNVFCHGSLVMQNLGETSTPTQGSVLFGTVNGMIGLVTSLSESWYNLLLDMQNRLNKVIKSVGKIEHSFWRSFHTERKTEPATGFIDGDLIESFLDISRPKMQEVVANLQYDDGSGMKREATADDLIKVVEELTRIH

SMILES | EC50 [1] | Recruitment Assessment [2]
COCC(=O)Nc1cccc2c1CN(C1CCC(=O)NC1=O)C2=O (centres unmarked) [C22564, N-[2-(2,6-dioxo-3-piperidyl)-1-oxo-isoindolin-4-yl]-2-methoxy-acetamide] | 873 nM | TRUE
CN(C)C1c2ccccc2C(=O)N1C1CCC(=O)NC1=O (centres unmarked) [C10981, 3-[1-(dimethylamino)-3-oxo-isoindolin-2-yl]piperidine-2,6-dione] | 1460 nM | TRUE
CC(=O)Nc1ccc2c(c1)CN(C1CCC(=O)NC1=O)C2=O (centres unmarked) [C29361, N-[2-(2,6-dioxo-3-piperidyl)-1-oxo-isoindolin-5-yl]acetamide] | 186 nM | TRUE
Cc1ccc2nnn(C3CCC(=O)NC3=O)c(=O)c2c1 (centres unmarked) [C16463, 3-(6-methyl-4-oxo-1,2,3-benzotriazin-3-yl)piperidine-2,6-dione] | 772 nM | TRUE
CC(=O)NCCNc1ccc2c(c1)CN(C1CCC(=O)NC1=O)C2=O (centres unmarked) [C35745, N-[2-[[2-(2,6-dioxo-3-piperidyl)-1-oxo-isoindolin-5-yl]amino]ethyl]acetamide] | 2630 nM | TRUE
O=C1CCC(N2Cc3cc(-c4ccccc4)ccc3C2=O)C(=O)N1 (centres unmarked) [C48016, 3-(1-oxo-5-phenyl-isoindolin-2-yl)piperidine-2,6-dione] | 122 nM | TRUE
Cc1ccc2c(=O)n(C3CCC(=O)NC3=O)nnc2c1 (centres unmarked) [C17800, 3-(7-methyl-4-oxo-1,2,3-benzotriaan-3-yl)piperidirie-2,6-dione] | 904 nM | TRUE
N#Cc1cccc2c1CN(C1CCC(=O)NC1=O)C2=O (centres unmarked) [C48003, 2-(2,6-dioxo-3-piperidyl)-1-oxo-isoindoline-4-carbonitrile] | 581 nM | TRUE
CCOC(=O)Nc1cccc2c1CN(C1CCC(=O)NC1=O)C2=O (centres unmarked) [C22622, ethyl N-[2-(2,6-dioxo-3-piperidyl)-1-oxo-isoindolin-4-yl]carbamate] | 121 nM | TRUE
NC(=O)c1cccc(NC(=O)CNc2ccc3c(c2)CN(C2CCC(=O)NC2=O)C3=O)c1 (centres unmarked) [C35811, 3-[[2-[[2-(2,6-dioxo-3-piperidyl)-1-oxo-isoindolin-5-yl]amino]acetyl]amino]benzamide] | 641 nM | TRUE
O=C1CCC(N2Cc3ccc(NC(=O)c4cnc5nccn5c4)cc3C2=O)C(=O)N1 (centres unmarked) [C80396, N-[2-(2,6-dioxo-3-piperidyl)-3-oxo-isoindolin-5-yl]imidazo[1,2-a] pyrimidine-6-carboxamide] | 1380 nM | TRUE
O=C1CCC(N2Cc3cc4c(cc3C2=O)OCO4)C(=O)N1 (centres unmarked) [C68126, 3-(7-oxo-5H-[1,3]dioxolo[4,5-f]isoindol-6-yl)piperidine-2,6-dione] | 319 nM | TRUE
Cc1nc2ccc(C#N)c(N)c2c(=O)n1C1CCC(=O)NC1=O (centres unmarked) [C10001, 5-amino-3-(2,6-dioxo-3-piperidyl)-2-methyl-4-oxo-quinazoline-6-carbonitrile] | 1250 nM | TRUE
O=C1CCC(N2Cc3cccc(F)c3C2=O)C(=O)N1 (centres unmarked) [C23066, 3-(7-fluoro-1-oxo-isoindolin-2-yl)piperidine-2,6-dione] | 88.2 nM | TRUE
Cc1ccc2c(c1)C(=O)N(C1CCC(=O)NC1=O)C2 (centres unmarked) [C28620, 3-(6-methyl-1-oxo-isoindolin-2-yl)piperidine-2,6-dione] | 270 nM | TRUE
CCOC(=O)NCCNc1ccc2c(c1)CN(C1CCC(=O)NC1=O)C2=O (centres unmarked) [C35754, ethyl N-[2-[[2-(2,6-dioxo-3-piperidyl)-1-oxo-isoindolin-5-yl]amino]ethyl]carbamate] | 278 nM | TRUE
O=C1CCC(N2Cc3ccc(NCC(=O)NC4CCOC4)cc3C2=O)C(=O)N1 (centres unmarked) [C12694, 2-[[2-(2,6-dioxo-3-piperidyl)-3-oxo-isoindolin-5-yl]amino]-N-tetrahydrofuran-3-yl-acetamide] | 3430 nM | TRUE
O=C1CCC(N2Cc3ccc(NCC(=O)NC4CCOCC4)cc3C2=O)C(=O)N1 (centres unmarked) [C12693, 2-[[2-(2,6-dioxo-3-piperidyl)-3-oxo-isoindolin-5-yl]amino]-N-tetrahydropyran-4-yl-acetamide] | 2620 nM | TRUE

SMILES | EC50 [1] | Recruitment Assessment [2]
CC(Nc1ccc2c(c1)C(=O)N(C1CCC(=O)NC1=O)C2)C(=O)O (centres unmarked) [C84970, 2-[[2-(2,6-dioxo-3-piperidyl)-3-oxo-isoindolin-5-yl]amino] propanoic acid] | 1010 nM | TRUE
O=C(O)CNc1ccc2c(c1)CN(C1CCC(=O)NC1=O)C2=O (centres unmarked) [C47995, 2-[[2-(2,6-dioxo-3-piperidyl)-1-oxo-isoindolin-5-yl]amino]acetic acid] | 518 nM | TRUE
CC(=O)NC1c2ccccc2C(=O)N1C1CCC(=O)NC1=O (centres unmarked) [C33779, N-[2-(2,6-dioxo-3-piperidyl)-3-oxo-isoindolin-1-yl]acetamide] | 3030 nM | TRUE
O=C1CCC(N2C(=O)c3ccccc3C2NCc2ccccc2)C(=O)N1 (centres unmarked) [C10239, 3-[1-(benzylamino)-3-oxo-isoindolin-2-yl]piperidine-2,6-dione] | 1160 nM | TRUE
O=C(O)CNc1cccc2c1C(=O)N(C1CCC(=O)NC1=O)C2 (centres unmarked) [C47998, 2-[[2-(2,6-dioxo-3-piperidyl)-3-oxo-isoindolin-4-yl]amino]acetic acid] | 2170 nM | TRUE
O=C1CCC(N2Cc3ccc(Nc4ncc5c(n4)COC5)cc3C2=O)C(=O)N1 (centres unmarked) [C80391, 3-[6-(5,7-dihydrofuro[3,4-d]pyrimidin-2-ylamino)-1-oxo-isoindolin-2-yl]piperidine-2,6-dione] | 152 nM | TRUE
CN(C)CC(=O)Nc1cccc2c1CN(C1CCC(=O)NC1=O)C2=O (centres unmarked) [C22586, 2-(dimethylamino)-N-[2-(2,6-dioxo-3-piperidyl)-1-oxo-isoindolin-4-yl] acetamide] | 1140 nM | TRUE
N#Cc1ccc2c(c1)CN(C1CCC(=O)NC1=O)C2=O (centres unmarked) [C48005, 2-(2,6-dioxo-3-piperidyl)-1-oxo-isoindoline-5-carbonitrile] | 595 nM | TRUE
O=C1CCC(N2C(=O)c3ccccc3C2O)C(=O)N1 (centres unmarked) [C89940, 3-(1-hydroxy-3-oxo-isoindolin-2-yl)piperidine-2,6-dione] | 438 nM | TRUE
O=C1CCC(N2Cc3ncccc3C2=O)C(=O)N1 (centres unmarked) [C47959, 3-(5-oxo-7H-pyrrolo[3,4-b]pyridin-6-yl)piperidine-2,6-dione] | 441 nM | TRUE
CC(C)OC1c2ccccc2C(=O)N1C1CCC(=O)NC1=O (centres unmarked) [3-(1-isopropoxy-3-oxo-isoindolin-2-yl)piperidine-2,6-dione] | 2700 nM | TRUE
O=C1CCC(N2C(=O)C3=C(C2=O)c2ccccc2CC3)C(=O)N1 (centres unmarked) [C64340, 2-(2,6-dioxo-3-piperidyl)-4,5-dihydrobenzo[e]isoindole-1,3-dione] | 1490 nM | TRUE
N#Cc1cccc2c1C(=O)N(C1CCC(=O)NC1=O)C2 (centres unmarked) [C48009, 2-(2,6-dioxo-3-piperidyl)-3-oxo-isoindoline-4-carbonitrile] | – | FALSE
O=C1CCC(N2Cc3ccc(NC(=O)c4ccc5cnccc5n4)cc3C2=O)C(=O)N1 (centres unmarked) [C80393, N-[2-(2,6-dioxo-3-piperidyl)-3-oxo-isoindolin-5-yl]-1,6-naphthyridine-2-carboxamide] | – | FALSE
CC(=O)NCC(=O)Nc1ccc2c(c1)C(=O)N(C1CCC(=O)NC1=O)C2 (centres unmarked) [C84967, 2-acetamido-N-[2-(2,6-dioxo-3-piperidyl)-3-oxo-isoindolin-5-yl]acetamide] | – | TRUE
CN1CCN(C(=O)CNc2ccc3c(c2)C(=O)N(C2CCC(=O)NC2=O)C3)CC1=O (centres unmarked) [C12597, 3-[6-[[2-(4-methyl-3-oxo-piperazin-1-yl)-2-oxo-ethyl]amino]-1-oxo-isoindolin-2-yl]piperidine-2,6-dione] | – | FALSE
O=C1CCC(N2C(=O)c3ccccc3C2OCc2ccccc2)C(=O)N1 (centres unmarked) [3-(1-benzyloxy-3-oxo-isoindolin-2-yl)piperidine-2,6-dione] | – | FALSE
